How the values were obtained:
[1] = system: bladder of adult female Wistar rats; assay: intravesical pressure measurement in para-phenylenediamine-treated rats; format: in vivo
Procedure: (§1) In the current embodiment, 24 adult female Wistar rats were adopted as the experimental animals in the animal experiments and were randomly divided into four groups to be treated with different intraperitoneal injections. Referring to Table 1, the four groups are as follows: 1) the control group: 1 mL/day saline solution for 4 weeks; 2) the first experimental group: PPD (60 […]) for 4 weeks; 3) the second group: PPD ([…]) for 4 weeks and a drug (1.5 mg/kg/day) prepared from WCT003 for the last 2 weeks of; 4) the third experimental group: PPD (60 μg/kg/day) for 4 weeks and a drug (1.5 mg/kg/day) prepared from WCT006 for the last 2 weeks.
Then, each group of the rats were anesthetized with urethane (1.2 g/kg) via percutaneously injection, and a catheter was placed in a left femoral artery of each of the rats to measure arterial pressure (ABP). Meanwhile, intravesical pressure of the rats were also measured to obtain the parameters such as bladder intercontraction interval (ICI), urination time (MT), maximum urination pressure (MVP), contraction amplitude (A=MVP-BP), urination pressure threshold (PT), etc., as shown in FIG. 3 to FIG. 5.

[2] = system: reactive oxygen species in the bladder cells; assay: reactive oxygen species count in the bladder (in vivo); design: species or system Wistar rats; conditions: PPD alone i.p. for 4 weeks, FIG. 9 and 10
Procedure: as §1
FIG. 10 show the analytical data of the reactive oxygen species count in vivo for each group of rats. It could be seen from FIG. 9 and FIG. 10 that the reactive oxygen species count in the bladder cells of the first experimental group of rats is much higher than that of the control group.

adult female Wistar rats = assay: metabolic cage sample data; format: in vivo
Procedure: as §1
Referring to Table 2, which lists the sample data collected from the rats of the control group and the first experimental group where were placed in the metabolic cage: […]

[3] = system: bladder tissue of adult female Wistar rats; assay: bladder tissue slices and perfusion unit after para-phenylenediamine; format: in vivo; conditions: PPD i.p. for 4 weeks vs control group
Procedure: as §1
It could be known from the experiment data that para-phenylenediamine induces inflammatory response and ischemia in the bladders of the rats in the first experimental group.

reactive oxygen species = assay: luminol and lucigenin chemiluminescence of blood or urine samples (in vitro); design: species or system Wistar rats; conditions: PPD i.p. for 4 weeks
Procedure: To determine the effect of the drug prepared from the nickel complex WCt003 and WCt006 on eliminating reactive oxygen species, a luminol and lucigenin chemiluminescence (CL) method was utilized. The method includes the following steps: 0.2 ml sample of blood or urine was mixed with 0.5 ml of 1 mmol/L lucigenin or 0.2 mmol/L luminol, and then the mixture was analyzed with a chemiluminescence analysis system, wherein, the recorded signals were corresponding to the hydrogen peroxide (H2O2) and hypochlorous acid (HOCl) count in the luminol method, while the recorded signals were corresponding to the superoxide anion (O2^−) count in the lucigenin method.

[4] = first experimental group: PPD alone i.p. for 4 weeks
[5] = first experimental group: PPD i.p. for 4 weeks

Nc1ccc(N)cc1 [para-phenylenediamine]
bladder intercontraction interval vs control group ([1]; PPD i.p., in words, Table 3 and FIG. 6): significantly shorter
A (contraction amplitude) [1, 4]: 20.3 ± 0.9 mmHg
ICI (bladder intercontraction interval) [1, 4]: 35.8 ± 6.0 s
MVP (maximum urination pressure) [1, 4]: 30.6 ± 0.9 mmHg
reactive oxygen species count in the bladder cells vs control group [2]: much higher
stool vs control group (adult female Wistar rats; PPD i.p. for 4 weeks, in words): more
urinary frequency vs control group (adult female Wistar rats; PPD i.p. for 4 weeks, in words): more frequent
urine vs control group (adult female Wistar rats; PPD i.p. for 4 weeks, in words): more
Body Weight (adult female Wistar rats; [5]): 277.8 ± 3.8 g
Food (adult female Wistar rats; [5]): 22.9 ± 4.4 g
Stool (adult female Wistar rats; [5]): 35.7 ± 8.1 g
Urinary frequency (24 hours) (adult female Wistar rats; [5]): 53.1 ± 13.3
Urine (adult female Wistar rats; [5]): 32.7 ± 7.5 mg
Water intake (adult female Wistar rats; [5]): 57.7 ± 7.2 mL
mast cell in the bladder ([3]; FIG. 1): significant increase
neutrophil infiltration in the bladder tissue ([3]; FIG. 1): have neutrophil infiltration in the bladder tissue
perfusion unit ([3]; FIG. 2): reduced
O2− count in the blood sample vs control group (reactive oxygen species; blood, lucigenin, FIG. 8): higher
H2O2 and HOCl counts in the blood sample vs control group (reactive oxygen species; blood, luminol, FIG. 8): significantly higher
reactive oxygen species count in urine samples vs control group (reactive oxygen species; urine, FIG. 7): no significant difference
